# Test results from PubChem BioAssay AID1259407 (Chemical Carcinogenesis Research Information System (CCRIS), 2018).
# The source made the active and inactive calls. How the calls were made is not given here.
# Tested on: CCRIS mutagenicity, Ames/micronucleus/aberration tests
# Assay: CCRIS mutagenicity studies
# [1] = Test System: AMES SALMONELLA TYPHIMURIUM, Strain/Indicator: TA98, Metabolic Activation: NONE, Method: PREINCUBATION
# [2] = Test System: AMES SALMONELLA TYPHIMURIUM, Strain/Indicator: TA100, Metabolic Activation: NONE, Method: PREINCUBATION
# [3] = Test System: AMES SALMONELLA TYPHIMURIUM, Strain/Indicator: TA1537, Metabolic Activation: NONE, Method: PREINCUBATION
# [4] = Test System: AMES SALMONELLA TYPHIMURIUM, Strain/Indicator: TA98, Metabolic Activation: RAT, LIVER, S-9, AROCLOR 1254, Method: STANDARD PLATE
# [5] = Test System: AMES SALMONELLA TYPHIMURIUM, Strain/Indicator: TA100, Metabolic Activation: RAT, LIVER, S-9, AROCLOR 1254, Method: STANDARD PLATE
# [6] = Test System: AMES SALMONELLA TYPHIMURIUM, Strain/Indicator: TA1535, Metabolic Activation: NONE, Method: STANDARD PLATE
# [7] = Test System: AMES SALMONELLA TYPHIMURIUM, Strain/Indicator: TA1535, Metabolic Activation: RAT, LIVER, S-9, AROCLOR 1254, Method: STANDARD PLATE
# [8] = Test System: AMES SALMONELLA TYPHIMURIUM, Strain/Indicator: TA1537, Metabolic Activation: NONE, Method: STANDARD PLATE
# [9] = Test System: AMES SALMONELLA TYPHIMURIUM, Strain/Indicator: TA1537, Metabolic Activation: RAT, LIVER, S-9, AROCLOR 1254, Method: STANDARD PLATE
structure (smiles),measurement,setting,value
C[C@]12C=CC(=O)C=C1CC[C@@H]1[C@@H]2[C@@H](O)C[C@@]2(C)[C@H]1CC[C@]2(O)C(=O)CO,mutagenic call,[1],inactive; negative
same,mutagenic call,"Test System: AMES SALMONELLA TYPHIMURIUM, Strain/Indicator: TA98, Metabolic Activation: S-9, Method: PREINCUBATION",inactive; negative
same,mutagenic call,[2],inactive; negative
same,mutagenic call,"Test System: AMES SALMONELLA TYPHIMURIUM, Strain/Indicator: TA100, Metabolic Activation: S-9, Method: PREINCUBATION",inactive; negative
same,mutagenic call,"Test System: MOUSE LYMPHOMA, Strain/Indicator: L5178Y (TK+/TK-), Metabolic Activation: NONE, Method: SUSPENSION/PLATE",inactive; negative
same,mutagenic call,"Test System: MOUSE LYMPHOMA, Strain/Indicator: L5178Y (TK+/TK-), Metabolic Activation: RAT, LIVER, S-9, AROCLOR 1254, Method: SUSPENSION/PLATE",active; positive
O=S(=O)(O)c1ccc2c(N=Nc3ccccc3)c(O)ccc2c1,mutagenic call,[1],inactive; negative
same,mutagenic call,"Test System: AMES SALMONELLA TYPHIMURIUM, Strain/Indicator: TA98, Metabolic Activation: RAT, LIVER, S-9, PHENOBARBITAL, Method: PREINCUBATION",inactive; negative
same,mutagenic call,[2],inactive; negative
same,mutagenic call,"Test System: AMES SALMONELLA TYPHIMURIUM, Strain/Indicator: TA100, Metabolic Activation: RAT, LIVER, S-9, PHENOBARBITAL, Method: PREINCUBATION",inactive; negative
Oc1c(I)cc(Cl)c2cccnc12,mutagenic call,"Test System: AMES SALMONELLA TYPHIMURIUM, Strain/Indicator: TA97, Metabolic Activation: HAMSTER, LIVER, S-9, AROCLOR 1254 (10%), Method: PREINCUBATION",inactive; negative
same,mutagenic call,"Test System: AMES SALMONELLA TYPHIMURIUM, Strain/Indicator: TA97, Metabolic Activation: HAMSTER, LIVER, S-9, AROCLOR 1254 (30%), Method: PREINCUBATION",inactive; negative
same,mutagenic call,"Test System: AMES SALMONELLA TYPHIMURIUM, Strain/Indicator: TA97, Metabolic Activation: NONE, Method: PREINCUBATION",inactive; negative
same,mutagenic call,"Test System: AMES SALMONELLA TYPHIMURIUM, Strain/Indicator: TA97, Metabolic Activation: RAT, LIVER, S-9, AROCLOR 1254 (10%), Method: PREINCUBATION",inactive; negative
same,mutagenic call,"Test System: AMES SALMONELLA TYPHIMURIUM, Strain/Indicator: TA97, Metabolic Activation: RAT, LIVER, S-9, AROCLOR 1254 (30%), Method: PREINCUBATION",inactive; negative
same,mutagenic call,"Test System: AMES SALMONELLA TYPHIMURIUM, Strain/Indicator: TA98, Metabolic Activation: HAMSTER, LIVER, S-9, AROCLOR 1254 (10%), Method: PREINCUBATION",inactive; negative
same,mutagenic call,"Test System: AMES SALMONELLA TYPHIMURIUM, Strain/Indicator: TA98, Metabolic Activation: HAMSTER, LIVER, S-9, AROCLOR 1254 (30%), Method: PREINCUBATION",inactive; negative
same,mutagenic call,[1],inactive; negative
same,mutagenic call,"Test System: AMES SALMONELLA TYPHIMURIUM, Strain/Indicator: TA98, Metabolic Activation: RAT, LIVER, S-9, AROCLOR 1254 (10%), Method: PREINCUBATION",inactive; negative
same,mutagenic call,"Test System: AMES SALMONELLA TYPHIMURIUM, Strain/Indicator: TA98, Metabolic Activation: RAT, LIVER, S-9, AROCLOR 1254 (30%), Method: PREINCUBATION",inactive; negative
same,mutagenic call,"Test System: AMES SALMONELLA TYPHIMURIUM, Strain/Indicator: TA100, Metabolic Activation: HAMSTER, LIVER, S-9, AROCLOR 1254 (10%), Method: PREINCUBATION",inactive; negative
same,mutagenic call,"Test System: AMES SALMONELLA TYPHIMURIUM, Strain/Indicator: TA100, Metabolic Activation: HAMSTER, LIVER, S-9, AROCLOR 1254 (30%), Method: PREINCUBATION",inactive; negative
same,mutagenic call,[2],inactive; negative
same,mutagenic call,"Test System: AMES SALMONELLA TYPHIMURIUM, Strain/Indicator: TA100, Metabolic Activation: RAT, LIVER, S-9, AROCLOR 1254 (10%), Method: PREINCUBATION",inactive; negative
same,mutagenic call,"Test System: AMES SALMONELLA TYPHIMURIUM, Strain/Indicator: TA100, Metabolic Activation: RAT, LIVER, S-9, AROCLOR 1254 (30%), Method: PREINCUBATION",inactive; negative
same,mutagenic call,"Test System: AMES SALMONELLA TYPHIMURIUM, Strain/Indicator: TA1535, Metabolic Activation: HAMSTER, LIVER, S-9, AROCLOR 1254 (10%), Method: PREINCUBATION",inactive; negative
same,mutagenic call,"Test System: AMES SALMONELLA TYPHIMURIUM, Strain/Indicator: TA1535, Metabolic Activation: HAMSTER, LIVER, S-9, AROCLOR 1254 (30%), Method: PREINCUBATION",inactive; negative
same,mutagenic call,"Test System: AMES SALMONELLA TYPHIMURIUM, Strain/Indicator: TA1535, Metabolic Activation: NONE, Method: PREINCUBATION",inactive; negative
same,mutagenic call,"Test System: AMES SALMONELLA TYPHIMURIUM, Strain/Indicator: TA1535, Metabolic Activation: RAT, LIVER, S-9, AROCLOR 1254 (10%), Method: PREINCUBATION",inactive; negative
same,mutagenic call,"Test System: AMES SALMONELLA TYPHIMURIUM, Strain/Indicator: TA1535, Metabolic Activation: RAT, LIVER, S-9, AROCLOR 1254 (30%), Method: PREINCUBATION",inactive; negative
same,mutagenic call,"Test System: AMES SALMONELLA TYPHIMURIUM, Strain/Indicator: TA1537, Metabolic Activation: HAMSTER, LIVER, S-9, AROCLOR 1254 (30%), Method: PREINCUBATION",inactive; negative
same,mutagenic call,[3],inactive; negative
same,mutagenic call,"Test System: AMES SALMONELLA TYPHIMURIUM, Strain/Indicator: TA1537, Metabolic Activation: RAT, LIVER, S-9, AROCLOR 1254 (30%), Method: PREINCUBATION",inactive; negative
COc1cc(N)c([N+](=O)[O-])cc1N,mutagenic call,"Test System: AMES SALMONELLA TYPHIMURIUM, Strain/Indicator: TA98, Metabolic Activation: NONE, Method: STANDARD PLATE",active; positive
same,mutagenic call,[4],active; positive
same,mutagenic call,"Test System: AMES SALMONELLA TYPHIMURIUM, Strain/Indicator: TA100, Metabolic Activation: NONE, Method: STANDARD PLATE",inactive; negative
same,mutagenic call,[5],active; positive
same,mutagenic call,[6],inactive; negative
same,mutagenic call,[7],inactive; negative
same,mutagenic call,[8],active; positive
same,mutagenic call,[9],active; positive
same,mutagenic call,"Test System: AMES SALMONELLA TYPHIMURIUM, Strain/Indicator: TA1538, Metabolic Activation: NONE, Method: STANDARD PLATE",active; positive
same,mutagenic call,"Test System: AMES SALMONELLA TYPHIMURIUM, Strain/Indicator: TA1538, Metabolic Activation: RAT, LIVER, S-9, AROCLOR 1254, Method: STANDARD PLATE",active; positive
O=C1c2ccccc2C(=O)c2c(O)c(O)cc(O)c21,mutagenic call,[1],inactive; negative
same,mutagenic call,[4],inactive; negative
same,mutagenic call,"Test System: AMES SALMONELLA TYPHIMURIUM, Strain/Indicator: TA98, Metabolic Activation: RAT, LIVER, S-9, PCB, Method: PREINCUBATION",inactive; negative
same,mutagenic call,[2],inactive; negative
same,mutagenic call,[5],inactive; negative
same,mutagenic call,"Test System: AMES SALMONELLA TYPHIMURIUM, Strain/Indicator: TA100, Metabolic Activation: RAT, LIVER, S-9, PCB, Method: PREINCUBATION",inactive; negative
same,mutagenic call,[6],inactive; negative
same,mutagenic call,[7],inactive; negative
same,mutagenic call,[3],active; positive
same,mutagenic call,[8],active; positive
same,mutagenic call,[9],active; positive
same,mutagenic call,"Test System: AMES SALMONELLA TYPHIMURIUM, Strain/Indicator: TA1537, Metabolic Activation: RAT, LIVER, S-9, Method: PREINCUBATION",active; positive
same,mutagenic call,"Test System: CHINESE HAMSTER V-79, Strain/Indicator: V-79/8-AZAGUANINE, Metabolic Activation: NONE, Method: STANDARD PLATE",active; positive
same,mutagenic call,"Test System: UDS RODENT HEPATOCYTES, Strain/Indicator: THY INCORP (NON-S-PHASE), Method: AUTORADIOGRAPHY",active; positive
